In patent publication US6355633B1, “Aryl sulfonic acids and derivatives as FSH antagonists” (American Home Products Corporation, priority 1999, dated 2002):
Read-outs that look alike come from different tables or passages of the source.

What was measured:
FSH receptor = target: T1, FSH receptor (Homo sapiens, UniProt P23945); test: In Vitro Bio-test Procedure of Agonists and Antagonists to the FSH Receptor (cAMP accumulation in CHO-3D2 cells); assay type: cell-based; design: expressed in transfected cells; host or cells: CHO-3D2 cells
T1 sequence (P23945 18-695): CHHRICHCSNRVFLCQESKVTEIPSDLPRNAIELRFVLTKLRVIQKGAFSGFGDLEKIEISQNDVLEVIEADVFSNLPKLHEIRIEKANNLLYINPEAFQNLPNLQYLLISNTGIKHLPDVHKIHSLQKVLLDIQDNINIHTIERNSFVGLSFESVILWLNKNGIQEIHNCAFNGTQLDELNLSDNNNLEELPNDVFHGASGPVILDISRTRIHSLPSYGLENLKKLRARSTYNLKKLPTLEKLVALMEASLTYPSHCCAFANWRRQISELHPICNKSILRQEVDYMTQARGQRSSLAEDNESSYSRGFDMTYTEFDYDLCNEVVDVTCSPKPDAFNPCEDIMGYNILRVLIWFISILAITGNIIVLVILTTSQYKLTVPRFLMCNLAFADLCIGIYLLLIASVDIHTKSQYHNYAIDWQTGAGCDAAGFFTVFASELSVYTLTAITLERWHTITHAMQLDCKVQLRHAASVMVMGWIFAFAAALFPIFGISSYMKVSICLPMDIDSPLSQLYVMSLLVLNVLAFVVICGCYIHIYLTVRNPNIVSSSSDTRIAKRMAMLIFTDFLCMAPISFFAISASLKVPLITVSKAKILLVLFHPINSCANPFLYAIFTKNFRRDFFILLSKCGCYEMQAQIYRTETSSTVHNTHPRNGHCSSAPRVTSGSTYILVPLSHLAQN
Summary of the method: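 CHO-3D2 cells (30,000/well, plated one day earlier) preincubated 30-45 min, then challenged with compounds in Optimem/0.1% BSA for 30 minutes at 37 deg C; agonist mode at 5 concentrations, antagonist mode against ED20 FSH. cAMP accumulation in medium measured by radioimmunoassay (fmol/mL); ANOVA with Dunnett's or Duncan's test.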

[1] = system: FSH-induced changes in ovarian follicular maturation; test: Immature Rat Test Procedure (FSH-induced organ wet weight); assay type: in vivo; conditions: immature rats, twice daily for three days with half-maximal dose of hFSH; for IC50 (mg/Kg) ovaries: ovarian wet weight; for IC50 (mg/Kg) uterus: uterine wet weight
Protocol: Immature Rat Test Procedure
In order to assess the ability of compounds to affect FSH-induced changes in ovarian follicular maturation in vivo, immature rats (18 days of age) are treated twice daily for three days with compound in the presence of a half-maximal dose of purified human FSH. Animals are treated via the i.p. or p.o. routes. On the fourth day following treatment, animals are euthanized and the ovaries, uterus and spleen (the spleen is a control tissue that should not respond to FHS stimulation) collected for wet weight determination. In each experiment animals treated with vehicle alone or FSH alone are used as negative and positive controls, respectively.

[2] = antagonist mode, inhibition of hFSH-induced cAMP accumulation (ED20 of FSH, […]), CHO-3D2 cells

Molecule	IC50 (FSH receptor) [nM]	other results
2,2′-[(E)-1,2-Ethenediyl]bis[5-[[4-(methylthio)-3-(4-morpholinylsulfonyl)benzoyl]amino]benzenesulfonic Acid] [Example 30b]		IC50 (FSH receptor; [2]): 1300 nM; IC50 (mg/Kg) ovaries ([1]; ip): 8.1 mg/kg; IC50 (mg/Kg) uterus ([1]; ip): 1.3 mg/kg; IC50 (mg/Kg) ovaries ([1]; po): 23 mg/kg; IC50 (mg/Kg) uterus ([1]; po): 10 mg/kg
COc1ccc(C(=O)Nc2ccc(/C=C/c3ccc(NC(=O)c4ccc(S(C)(=O)=O)cc4)cc3S(=O)(=O)O)c(S(=O)(=O)O)c2)cc1S(=O)(=O)N1CCOCC1 [Example 30g]		IC50 (FSH receptor; [2]): 2500 nM
CS(=O)(=O)c1ccc(C(=O)Nc2ccc(/C=C/c3ccc(NC(=O)c4ccc(S(C)(=O)=O)cc4)cc3S(=O)(=O)O)c(S(=O)(=O)O)c2)cc1 [Example 30q, 2,2′-[(E)-1,2-Ethenediyl]bis[5-[[4-(methylsulfonyl)benzoyl]amino]benzenesulfonic Acid]]	12000	
COc1ccc(C(=O)Nc2ccc(/C=C/c3ccc(NC(=O)c4ccc(OC)c(S(=O)(=O)N5CCSCC5)c4)cc3S(=O)(=O)O)c(S(=O)(=O)O)c2)cc1S(=O)(=O)N1CCSCC1 [Example 33d, 2,2′-[(E)-1,2-Ethenediyl]bis[5-[[4-methoxy-3-(4-thiomorpholinylsulfonyl)benzoyl]amino]benzenesulfonic Acid]]	2600	
COc1ccc(C(=O)Nc2ccc(/C=C/c3ccc(NC(=O)c4ccc(OC)c(S(=O)(=O)N5CCS(=O)(=O)CC5)c4)cc3S(=O)(=O)O)c(S(=O)(=O)O)c2)cc1S(=O)(=O)N1CCS(=O)(=O)CC1 [Example 30k, 2,2′-[(E)-1,2-Ethenediyl]bis[5-[[3-[(1,1-dioxido-4-thiomorpholinyl)sulfonyl]-4-methoxybenzoyl]amino]benzenesulfonic Acid]]	1500	
CCS(=O)(=O)c1ccc(C(=O)Nc2ccc(/C=C/c3ccc(NC(=O)c4ccc(S(=O)(=O)CC)cc4)cc3S(=O)(=O)O)c(S(=O)(=O)O)c2)cc1 [Example 32f, 2,2′-[(E)-1,2-Ethenediyl]bis[5-[[4-(ethylsulfonyl)benzoyl]amino]benzenesulfonic Acid]]	4200	
COc1ccc(C(=O)Nc2ccc(CCc3ccc(NC(=O)c4ccc(S(C)(=O)=O)cc4)cc3S(=O)(=O)O)c(S(=O)(=O)O)c2)cc1S(=O)(=O)N1CCOCC1 [Example 43a, 5-[[4-Methoxy-3-(4-morpholinylsulfonyl)benzoyl]amino]-2-[2-[4-[[4-(methylsulfonyl)benzoyl]amino]-2-sulfophenyl]ethyl]benzenesulfonic Acid]	8700	
COCCOc1ccc(C(=O)Nc2ccc(/C=C/c3ccc(NC(=O)c4ccc(OCCOC)c(S(=O)(=O)N5CCOCC5)c4)cc3S(=O)(=O)O)c(S(=O)(=O)O)c2)cc1S(=O)(=O)N1CCOCC1 [Example 30t, 2,2′-[(E)-1,2-Ethenediyl]bis[5-[[4-(2-methoxyethoxy)-3-(4-morpholinylsulfony)benzoyl]amino]benzenesulfonic Acid]]	1400	
COc1ccc(C(=O)Nc2ccc(/C=C/c3ccc(NC(=O)c4ccc(OC)c(S(=O)(=O)N5CCN(C(C)=O)CC5)c4)cc3S(=O)(=O)O)c(S(=O)(=O)O)c2)cc1S(=O)(=O)N1CCN(C(C)=O)CC1 [Example 34a, 2,2′-[(E)-1,2-Ethenediyl]bis[5-[[3-[(4-acetyl-1-piperazinyl)sulfonyl]-4-methoxybenzoyl]amino]benzenesulfonic Acid]]	3300	
CSc1ccc(C(=O)Nc2ccc(/C=C/c3ccc(NC(=O)c4ccc(S(C)(=O)=O)c([N+](=O)[O-])c4)cc3S(=O)(=O)O)c(S(=O)(=O)O)c2)cc1S(=O)(=O)N1CCOCC1 [Example 30e]	900	
COc1ccc(C(=O)Nc2ccc(/C=C/c3ccc(NC(=O)c4ccc(OC)c(S(=O)(=O)N5CCCC5)c4)cc3S(=O)(=O)O)c(S(=O)(=O)O)c2)cc1S(=O)(=O)N1CCCC1 [Example 33e, 2,2′-[(E)-1,2-Ethenediyl]bis[5-[[4-methoxy-3-(1-pyrrolidinylsulfonyl)benzoyl]amino]benzenesulfonic Acid]]	1500	
COCCNS(=O)(=O)c1cc(C(=O)Nc2ccc(/C=C/c3ccc(NC(=O)c4ccc(OC)c(S(=O)(=O)NCCOC)c4)cc3S(=O)(=O)O)c(S(=O)(=O)O)c2)ccc1OC [Example 30m, 2,2′-[(E)-1,2-Ethenediyl]bis[5-[[4-methoxy-3-[[(2-methoxyethyl)amino]sulfonyl]benzoyl]amino]benzenesulfonic Acid]]	5800	
CS(=O)(=O)c1ccc(C(=O)Nc2ccc(/C=C/c3ccc(NC(=O)c4ccc(S(C)(=O)=O)c([N+](=O)[O-])c4)cc3S(=O)(=O)O)c(S(=O)(=O)O)c2)cc1[N+](=O)[O-] [Example 30c, 2.2′-[(E)-1,2-Ethenediyl]bis[5-[[(4-methylsulfonyl)-3-(nitro)-benzoyl]amino]benzenesulfonic Acid]]		IC50 (FSH receptor; [2]): 3600 nM
O=C(Nc1ccc(/C=C/c2ccc(NC(=O)c3ccc(OC4CCOCC4)c(S(=O)(=O)N4CCOCC4)c3)cc2S(=O)(=O)O)c(S(=O)(=O)O)c1)c1ccc(OC2CCOCC2)c(S(=O)(=O)N2CCOCC2)c1 [Example 30r, 2,2′-[(E)-1,2-Ethenediyl]bis[5-[[3-(4-morpholinylsulfonyl)-4-[(tetrahydro-2H-pyran-4-yl)oxy]benzoyl]amino]benzenesulfonic Acid]]	2000	
COc1ccc(C(=O)Nc2ccc(/C=C/c3ccc(NC(=O)c4ccc(OC)c(S(=O)(=O)N5CCOCC5)c4)cc3S(=O)(=O)O)c(S(=O)(=O)O)c2)cc1S(=O)(=O)N1CCOCC1 [Example 30s, 2,2′-[(E)-1,2-Ethenediyl]bis[5-[[4-methoxy-3-(4-morpholinylsulfonyl)benzoyl]amino]benzenesulfonic Acid]]	4400	
CS(=O)(=O)c1ccc(C(=O)Nc2ccc(/C=C/c3ccc(NC(=O)c4ccc(S(C)(=O)=O)c(S(=O)(=O)N5CCOCC5)c4)cc3S(=O)(=O)O)c(S(=O)(=O)O)c2)cc1S(=O)(=O)N1CCOCC1 [Example 30d, 2,2′-[(E)-1,2-Ethenediyl]bis[5-[[4-(methylsulfonyl)-3-(4-morpholinylsulfonyl)benzoyl]amino]benzenesulfonic Acid]]	1600	
COc1ccc(C(=O)Nc2ccc(/C=C/c3ccc(NC(=O)c4ccc(OC)c(S(=O)(=O)N5CCN(C=O)CC5)c4)cc3S(=O)(=O)O)c(S(=O)(=O)O)c2)cc1S(=O)(=O)N1CCN(C=O)CC1 [Example 34b, 2,2′-[(E)-1,2-Ethenediyl]bis[5-[[3-[(4-formyl-1-piperazinyl)sulfonyl]-4-methoxybenzoyl]amino]benzenesulfonic Acid]]	1700	
COCCOCCOc1ccc(C(=O)Nc2ccc(/C=C/c3ccc(NC(=O)c4ccc(OCCOCCOC)c(S(=O)(=O)N5CCOCC5)c4)cc3S(=O)(=O)O)c(S(=O)(=O)O)c2)cc1S(=O)(=O)N1CCOCC1 [Example 30a, 2,2′-[(E)-1,2-Ethenediyl]bis[5-[[4-[2-(2-methoxyethoxy)ethoxy]-3-(4-morpholinylsulfonyl)benzoyl]amino]benzenesulfonic Acid]]	1600	
COCCNS(=O)(=O)c1cc(C(=O)Nc2ccc(/C=C/c3ccc(NC(=O)c4ccc(S(C)(=O)=O)c([N+](=O)[O-])c4)cc3S(=O)(=O)O)c(S(=O)(=O)O)c2)ccc1OC [Example 30f]	3100	
